{
  "source": "paper PMC9602571",
  "about": "“Discovery of a Dual SENP1 and SENP2 Inhibitor” (International Journal of Molecular Sciences, 2022)",
  "key": {"SENP1 [1]": {"target": "T1, SENP1 (Homo sapiens, UniProt Q9P0U3)", "T1 construct": "Human recombinant, His6-SENP1 Catalytic Domain; His6 (N); purchased Boston Biochem (Bio-Techne AG) E-700", "T1 sequence (Q9P0U3 450-613 limits assumed)": "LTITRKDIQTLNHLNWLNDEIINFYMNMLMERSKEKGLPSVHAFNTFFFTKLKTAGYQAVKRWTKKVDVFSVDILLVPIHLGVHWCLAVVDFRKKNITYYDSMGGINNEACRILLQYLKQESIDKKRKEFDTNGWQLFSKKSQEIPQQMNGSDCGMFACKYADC", "assay": "Fluorogenic SENP1 assay, SUMO2-AMC substrate", "type": "biochemical", "conditions": "n = 2", "procedure": "(§1) Human recombinant, His6-SENP1 Catalytic Domain (Boston Biochem Cat# E-700, Bio-Techne AG, Zug, Switzerland) was prepared in reaction buffer (50 mM HEPES, 150 mM NaCl, 0.5 mM EDTA, 1 mM DTT, pH 7.5, 0.01% CHAPS). To this solution, a 20 mM or 50 mM inhibitor stock solution in DMSO was added and the mixture was incubated for 15 min at ambient temperature. […] The data were analyzed by taking the slope (signal/time) of the linear portion of measurement. The slope was calculated using Excel and the curve fits were performed using GraphPad Prism7 with a four-parameter least-squares fit. The final reaction conditions contained 0.02 nM SENP1 and 300 nM SUMO1/2 or 3-AMC)."}, "SENP1 [2]": {"target": "T1, SENP1", "assay": "Fluorogenic SENP1 assay, SUMO1-AMC substrate", "type": "biochemical", "procedure": "as §1, with “The” for “The data were analyzed by taking the slope (signal/time) of the linear portion of measurement. The”"}, "SENP1 [3]": {"target": "T1, SENP1", "assay": "Mode of inhibition study, SENP1 and SUMO1-AMC kinetic measurement", "type": "biochemical", "procedure": "A mode of inhibition study with 11 was performed by kinetic measurement with SENP1 and SUMO1-AMC employing five different substrate concentrations (Figure 4). The IC50 values […] slightly by lowering the SUMO1-AMC substrate concentration from 1000 nM to 62.5 nM, indicating a slight binding preference to the SUMO1-SENP1 complex (Figure 4A).\nIC50 measurements were performed with at least two replications using eight concentrations starting at 200 μM and for the fragments at 500 μM with three-fold dilution. Human recombinant, His6-SENP1 Catalytic Domain (Boston Biochem Cat# E-700, Bio-Techne AG, Zug, Switzerland) was prepared in reaction buffer (50 mM HEPES, 150 mM NaCl, 0.5 mM EDTA, 1 mM DTT, pH 7.5, 0.01% CHAPS). To this solution, a 20 mM or 50 mM inhibitor stock solution in DMSO was added and the mixture was incubated for 15 min at ambient temperature. The substrate SUMO1/2 or 3-AMC (SUMO1-AMC; Boston Biochem Cat# UL-551; SUMO2-AMC; Boston Biochem Cat# UL-758; SUMO3-AMC; Boston Biochem Cat# UL-768; Bio-Techne AG, Zug, Switzerland) was delivered to a 96 well-plate to initiate the reaction. The enzyme activities were monitored (Ex/Em = 355/460 nm) as a time-course measurement of the increase in fluorescence signal from SUMO1/2 or 3-AMC for 60 min at 25 °C. The data were analyzed by taking the slope (signal/time) of the linear portion of measurement. The slope was calculated using Excel and the curve fits were performed using GraphPad Prism7 with a four-parameter least-squares fit. The final reaction conditions contained 0.02 nM SENP1 and 300 nM SUMO1/2 or 3-AMC)."}, "SENP1 [4]": {"target": "T1, SENP1", "assay": "Photo crosslinking experiments with SENP1", "type": "binding", "conditions": "competitor 400 µM, probe 56 200 µM", "procedure": "A buffer exchange of the commercially available 6 × His-SENP1 Protein (Boston Biochem Cat# E-700) to a 50 mM HEPES, 150 mM NaCl; 0.5 mM EDTA, 1 mM DTT, pH 7.5 was performed. A total of 200 μM of the photo affinity probe 56 with or without competitor molecule 11 (400 μM) was incubated in 10 uM SENP1 for 30 min at 0 °C. Subsequently, the mixtures were irradiated in a Proma UV exposure unit equipped with four 8 Watt lamps (Hitachi FL8BL-8, ~350 nm) for 30 min at 0 °C. Then, 50 µL of the crosslinked proteins were mixed with freshly prepared click mix solution (50 μL; 1 mM CuSO4, 1 mM TCEP, 100 uM THPTA from a 5 mM DMSO stock, dissolved in Milli-Q Water) and a 10 mM stock solution of azide fluor 545 (1 μL) and incubated at 0 °C for 14 h. […] Protein samples for SDS-PAGE were first prepared in 1 × Laemmli sample buffer (diluted from 4 × Laemmli sample buffer (ROTI®Load), and subsequently denatured at 100 °C for 15 min. After SDS-PAGE gel electrophoresis separation, the fluorescence was visualized (Ex. 520 nm, Em. 575 nm) on the SDS PAGE gel using ImageQuant^TM 4000 LAS (GE Healthcare, Chicago, IL, USA). Secondly, the gels were stained with Bio-Safe Coomassie Brilliant Blue G-250 (BioRad) for 60 min. De-staining was performed with 40% (v/v) methanol, 10% (v/v) glacial acetic acid, 50% (v/v) Milli-Q water until protein bands became visible."}},
  "note": "Where two headings read alike, the source gives them in different places.",
  "data": [
    {"compound": "O=C(Cn1nnc(-c2ccccc2)n1)N1c2ccccc2NC(=O)C12CCCC2", "note": "[Compound 11, 1′-[2-(5-Phenyl-2H-1,2,3,4-tetrazol-2-yl)acetyl]-3′,4′-dihydro-1′H-spiro[cyclopentane-1,2′-quinoxalin]-3′-one]", "values": [
      {"measurement": "IC50", "setting": "SENP1 [1]", "value": 43, "unit": "µM"},
      {"measurement": "IC50", "setting": "SENP1 [2]; SUMO1-AMC 300 nM, 0.02 nM SENP1, interval in parentheses, read-out: IC50 SENP1", "value": 8.6, "unit": "µM"},
      {"measurement": "IC50", "setting": "SENP1 [2]; screening library samples, SUMO1-AMC, read-out: IC50 SENP1 of hit molecules", "value": 5.1, "unit": "µM"},
      {"measurement": "alpha (mixed inhibition model)", "setting": "SENP1 [3]; global Michaelis-Menten fit", "value": 0.23},
      {"measurement": "Ki", "setting": "SENP1 [3]; global Michaelis-Menten fit, GraphPad Prism, read-out: KI (mixed inhibition model)", "value": 10.6, "unit": "µM"},
      {"measurement": "Ki", "setting": "SENP1 [3]; global fit, unit inferred, read-out: Ki (Figure 4B)", "value": 10.6, "unit": "µM"},
      {"measurement": "IC50", "setting": "SENP1 [3]; substrate 62.5 nM, read-out: IC50 at SUMO1-AMC 62.5 nM", "value": 6.65, "unit": "µM"},
      {"measurement": "IC50", "setting": "SENP1 [3]; substrate 125 nM, read-out: IC50 at SUMO1-AMC 125 nM", "value": 5.82, "unit": "µM"},
      {"measurement": "IC50", "setting": "SENP1 [3]; substrate 250 nM, read-out: IC50 at SUMO1-AMC 250 nM", "value": 4.72, "unit": "µM"},
      {"measurement": "IC50", "setting": "SENP1 [3]; substrate 500 nM, read-out: IC50 at SUMO1-AMC 500 nM", "value": 4.04, "unit": "µM"},
      {"measurement": "IC50", "setting": "SENP1 [3]; substrate 1000 nM, read-out: IC50 at SUMO1-AMC 1000 nM", "value": 3.15, "unit": "µM"},
      {"measurement": "fluorescently labelled band of SENP1 in competition with photo probe 56", "setting": "SENP1 [4]", "value": "significantly decreased"}
    ]}
  ]
}
